Experiments:
Type in all cases: cell-based
[1] = tested on: cells of the mammary carcinoma cell line MCF-7; test: Tumor cell growth inhibition, SRB-assay, MCF-7; settings: 50% growth inhibition, three days incubation in serum-containing medium
LXFL-529L cells = test: Cellular uptake by LXFL-529L cells; settings: 2 hours; for distribution particular: cellular organelles
Description: The amounts of the substances which were taken up by the cells are given depending on the concentration of the substance within the incubation medium. The time of incubation was 2 hours in all of the experiments. Furthermore, distribution between cytosol and the cellular organelles (particular) was measured and is given in the last two columns of Table 3.

[2] = tested on: cells of the large-cell lung carcinoma of the tumor line LXFL-529L; test: Tumor cell growth inhibition, SRB-assay, LXFL-529L; settings: 50% growth inhibition, three days incubation in serum-containing medium
[3] = concentration of incubation 10 μM
[4] = concentration of incubation 20 μM
[5] = concentration of incubation 50 μM

| IC50 [1] [µM] | distribution particular (LXFL-529L cells; [3]) [%] | distribution particular (LXFL-529L cells; [4]) [%] | distribution particular (LXFL-529L cells; [5]) [%] | amount taken up (LXFL-529L cells; [3]) [μg/mg protein] | distribution cytosol (LXFL-529L cells; [3]) [%] | amount taken up (LXFL-529L cells; [4]) [μg/mg protein] | distribution cytosol (LXFL-529L cells; [4]) [%] | amount taken up (LXFL-529L cells; [5]) [μg/mg protein] | distribution cytosol (LXFL-529L cells; [5]) [%] | IC50 [2] [µM] | Compound |
| --- | --- | --- | --- | --- | --- | --- | --- | --- | --- | --- | --- |
| 5 ± 0.8 | 90 ± 6 | 94 ± 5 | – | 0.20 ± 0.06 | 10 ± 2 | 0.23 ± 0.05 | 90 ± 6 | – | – | 7.5 ± 0.4 | Nc1ccc2c(c1)C(=C1Nc3ccccc3C1=NO)C(=O)N2 [Example 28, 5-amino-indirubin-3′-monooxime] |
| 7 ± 0.9 | 82 ± 6 | 89 ± 5 | – | 0.10 ± 0.03 | 18 ± 3 | 0.13 ± 0.05 | 11 ± 3 | – | – | 6 ± 0.6 | CCc1ccc2c(c1)C(=C1Nc3ccccc3C1=NO)C(=O)N2 [Example 26, 5-ethyl-indirubin-3′-monooxime] |
| 3.5 ± 0.6 | 87 ± 7 | 95 ± 6 | – | 0.20 ± 0.05 | 13 ± 3 | 0.25 ± 0.04 | 5 ± 1 | – | – | 21 ± 1.5 | 3-{3′-[iminooxy-O-(2-D-glucopyranosylethyl)]-(2′H3′H)indol-2′-ylidene}-(2H3H)indol-2-one [Example 48] |

Further lines, the compound ahead of its results:

| Compound | IC50 [1] [µM] | distribution particular (LXFL-529L cells; [3]) [%] | distribution particular (LXFL-529L cells; [4]) [%] | distribution particular (LXFL-529L cells; [5]) [%] | amount taken up (LXFL-529L cells; [3]) [μg/mg protein] | distribution cytosol (LXFL-529L cells; [3]) [%] | amount taken up (LXFL-529L cells; [4]) [μg/mg protein] | distribution cytosol (LXFL-529L cells; [4]) [%] | amount taken up (LXFL-529L cells; [5]) [μg/mg protein] | distribution cytosol (LXFL-529L cells; [5]) [%] | IC50 [2] [µM] |
| --- | --- | --- | --- | --- | --- | --- | --- | --- | --- | --- | --- |
| Cc1ccc2c(c1)C(=C1Nc3ccccc3C1=NO)C(=O)N2 [Example 25, 5-methyl-indirubin-3′-monooxime] | 6 ± 0.9 | 80 ± 5 | 84 ± 4 | 90 ± 8 | 0.12 ± 0.03 | 20 ± 4 | 0.15 ± 0.04 | 16 ± 3 | 0.18 ± 0.06 | 10 ± 4 | 6 ± 0.8 |
| Nc1ccc2c(c1)C(=C1Nc3ccccc3C1=O)C(=O)N2 [Example 15, 5-amino-indirubin] | 5 ± 0.5 | 85 ± 4 | 94 ± 4 | – | 0.25 ± 0.04 | 15 ± 2 | 0.29 ± 0.05 | 6 ± 1 | – | – | 8 ± 0.7 |

Reference: US6987092B1, “Indigoid bisindole derivatives” (Faustus Forschungs Cie. Translational Cancer Research GmbH, priority 1999, dated 2006)
